Measurements from US6150414A, “Compositions and methods for treating viral infections” (priority 1992, dated 2000).
Values joined by “and” are separate entries in the source; they are usually repeats but may differ in a detail not shown here. Identical values can stand only once.

How the values were obtained:
[1] = target: T1, Radiation Leukemia Virus reverse transcriptase (Radiation murine leukemia virus, UniProt P11227); assay: Radiation Leukemia Virus reverse transcriptase assay, supernatants from infected AQR cells (Examples 4 and 9); format: biochemical; conditions: for CPM: replicate; for inhibition at 50 ng / inhibition at 0.0001 mg / inhibition at 0.0005 mg / inhibition at 0.001 mg / inhibition at 0.002 mg / inhibition at 0.005 mg / inhibition at 0.01 mg: 0.5 h; for inhibition at 0.01 mg: read-out: Average % Inhibition
T1 construct: the reverse transcriptase of Radiation Leukemia Virus; endogenous in cells
Procedure: (§1) Supernatants (10 ml/tube) from B10.T(6R) cells (Meruelo et al. J. Exp. Med. 147: 470-487, 1978) chronically infected with Radiation Leukemia Virus (RadLV) were obtained by centrifugation of cells in culture at 4° C., 3500 rpm for 15 minutes. The top 2/3 of the supernatant were removed and aliquots were incubated for 30 minutes on ice with the indicated amounts of hypericin or protohypericin. […] Thereafter, supernatants were centrifuged at 100,000×g using a TI70 rotor (Beckman Instruments) for 1 hour at 4° C. The pellet was […] and analyzed for reverse transcriptase activity as follows.
(§2) The reverse transcriptase assay was performed in a volume of 100 microliters containing the following components:
The antiviral activity of HHA was tested using AQR (Bach and Meruelo, J. Exp. Med. 160:270-285, 1984) cells chronically infected with Radiation Leukemia Virus in the reverse transcriptase assay as described in Example 3 above.
The assays were conducted using the same procedure as in Example 3 above, using supernatants from infected AQR cells.

[2] = system: retroviruses (virions); assay: Direct inactivation of retroviruses (virions) in vitro (Example 10); format: biochemical, Radiation Leukemia Virus; conditions: Table IX
Procedure: as §1, §2
(§3) (1) Direct inactivation of retroviruses in vitro, performed as in Example 3 above;
(§4) The results presented above in Table IX are presented as EC50 concentrations. These are the effective concentrations which inhibit 50% of the viruses in micromolar concentrations.

[3] = system: Friend Leukemia Virus; assay: In vivo inhibition of Friend Leukemia Virus splenomegaly, intravenous 1-2 hours post infection (Example 10); design: species or system mice; conditions: Mus musculus, read-out: EC50 for FV-induced splenomegaly
Procedure: (§5) (3) In vivo inhibition of Friend Leukemia Virus Splenomegaly performed as described in Example 1 above except that the compounds were administered intravenously 1-2 hours post infection.
as §4

[4] = system: Friend Virus; assay: Friend Virus-induced splenomegaly, WIS compounds (Example 8); format: in vivo, mice; conditions: for Average % Inhibition / Average Spleen Weight / Actual Spleen Weight: Table VII; for Actual Spleen Weight: single animal
Procedure: The effects of compositions according to the present invention on the increase in spleen size (splenomegaly) of BALB/c mice (Jackson Labs, Bar Harbor, ME) was examined. In these experiments, the virus (10^6 focus forming units--FFU) was inoculated intravenously and 100 micrograms of the compounds indicated in Table II were administered to the mice intraperitoneally 24 hours later. Each compound was administered once to two mice. The animals were sacrificed ten days later and their spleens weighed.
As used in Table II (and subsequent Tables of this Example l(a) and (b), "average percent inhibition" is calculated as follows: [formula] wherein "ASWNC" designates "average spleen weight of negative control"; "ASWE" designates "average spleen weight of experimental (treated) subject"; and "ASWPC" designates "average spleen weight of positive control". Average spleen weight is the numerical average of spleen weights of each experimental group (in Table II each such group includes two members).
The AAB compounds whose synthesis is described above were assayed for antiviral activity. WIS-2, -3, -4, -5 and -6 were tested to determine their biological effects on Friend Virus-induced splenomegaly using the procedure and technique set forth in Example 1 above. The assay results (three mice per group were tested each at different concentrationss of the active composition except for the PBS-negative control wherein two animals per group were used) are reported in Table VII below.

[5] = system: retroviruses; assay: Comparison over two in vitro and one in vivo biological assays (Example 10); conditions: Example 10, structural comparison
Procedure: In order to investigate the structural features of hypericin which are essential for antiretroviral activity, numerous analogs and precursors of hypericin were examined for activity in two in vitro and one in vivo biological assay.
as §3, §5

CC(=O)Oc1cc(C)c2c3c(C)cc(OC(C)=O)c4c(=O)c5c(OC(C)=O)cc(OC(C)=O)c6c7c(OC(C)=O)cc(OC(C)=O)c8c(=O)c1c2c(c87)c(c43)c56 [HHA, Hypericin hexaacetate]
Average CPM ([1]; 0.05 micrograms, Table VI): 466,981 CPM
CPM ([1]; 0.05 micrograms, Table VI): 441,410 CPM and 492,552 CPM
Average CPM ([1]; 0.1 micrograms, Table VI): 202,454 CPM
Average percent inhibition ([1]; 0.1 micrograms, Table VI): 54.8%
CPM ([1]; 0.1 micrograms, Table VI): 208,882 CPM and 196,026 CPM
Average CPM ([1]; 0.5 micrograms, Table VI): 501,386 CPM
CPM ([1]; 0.5 micrograms, Table VI): 518,336 CPM and 484,356 CPM
Average CPM ([1]; 1 microgram, Table VI): 451,634 CPM
CPM ([1]; 1 microgram, Table VI): 401,306 CPM and 501,962 CPM
Average CPM ([1]; 5 micrograms, Table VI): 205,891 CPM
Average percent inhibition ([1]; 5 micrograms, Table VI): 54.1%
CPM ([1]; 5 micrograms, Table VI): 221,098 CPM and 190,604 CPM
Average CPM ([1]; 10 micrograms, Table VI): 91,440 CPM
Average percent inhibition ([1]; 10 micrograms, Table VI): 79.6%
CPM ([1]; 10 micrograms, Table VI): 96,654 CPM and 86,226 CPM
Average CPM ([1]; 50 micrograms, Table VI): 5,305 CPM
Average percent inhibition ([1]; 50 micrograms, Table VI): 98.8%
CPM ([1]; 50 micrograms, Table VI): 5,236 CPM and 5,374 CPM
Average CPM ([1]; 100 micrograms, Table VI): 2,545 CPM
Average percent inhibition ([1]; 100 micrograms, Table VI): 99.4%
CPM ([1]; 100 micrograms, Table VI): 2,750 CPM and 2,340 CPM
inhibition of RadLV reverse transcriptase activity ([1]; Example 4): about as active a protohypericin in inhibiting the RadLV reverse transcriptase activity
EC50 [2]: 12.9 µM
EC50 [3]: > 199 µM

CC(=O)Oc1cc(C)c2c3c(C)cc(OC(C)=O)c4cc5c(OC(C)=O)cc(OC(C)=O)c6c7c(OC(C)=O)cc(OC(C)=O)c8cc1c2c(c87)c(c43)c56 [WIS-4, desoxohypericinhexaacetate]
Average CPM ([1]; 0.05 micrograms, Table VIII): 164,212 CPM
CPM ([1]; 0.05 micrograms, Table VIII): 156,830 CPM and 171,594 CPM
Average CPM ([1]; 0.1 micrograms, Table VIII): 144,512 CPM
CPM ([1]; 0.1 micrograms, Table VIII): 100,504 CPM and 188,520 CPM
Average CPM ([1]; 0.5 micrograms, Table VIII): 208,119 CPM
CPM ([1]; 0.5 micrograms, Table VIII): 196,740 CPM and 219,498 CPM
Average CPM ([1]; 1 microgram, Table VIII): 180,180 CPM
CPM ([1]; 1 microgram, Table VIII): 179,312 CPM and 181,048 CPM
Average CPM ([1]; 2 micrograms, Table VIII): 237,365 CPM
CPM ([1]; 2 micrograms, Table VIII): 236,374 CPM and 238,356 CPM
Average CPM ([1]; 5 micrograms, Table VIII): 164,440 CPM
CPM ([1]; 5 micrograms, Table VIII): 164,780 CPM and 164,100 CPM
Average CPM ([1]; 10 micrograms, Table VIII): 184,852 CPM
CPM ([1]; 10 micrograms, Table VIII): 186,168 CPM and 183,536 CPM
inhibition at 50 ng ([1]; 0.05 micrograms, Table VIII): 79.9%
inhibition at 0.0001 mg ([1]; 0.1 micrograms, Table VIII): 82.3%
inhibition at 0.0005 mg ([1]; 0.5 micrograms, Table VIII): 74.5%
inhibition at 0.001 mg ([1]; 1 microgram, Table VIII): 77.9%
inhibition at 0.002 mg ([1]; 2 micrograms, Table VIII): 70.9%
inhibition at 0.005 mg ([1]; 5 micrograms, Table VIII): 79.9%
inhibition at 0.01 mg ([1]; 10 micrograms, Table VIII): 77.4%
Average % Inhibition ([4]; 1 microgram): 14.9%
Average Spleen Weight ([4]; 1 microgram): 0.8480
Actual Spleen Weight ([4]; 1 microgram): 0.7790 and 0.8852 and 0.8797
Average % Inhibition ([4]; 10 micrograms): 22.0%
Average Spleen Weight ([4]; 10 micrograms): 0.7921
Actual Spleen Weight ([4]; 10 micrograms): 0.8118 and 0.8625 and 0.7019
Average % Inhibition ([4]; 50 micrograms): 28.8%
Average Spleen Weight ([4]; 50 micrograms): 0.7384
Actual Spleen Weight ([4]; 50 micrograms): 0.7368 and 0.7744 and 0.7041
Average % Inhibition ([4]; 150 micrograms): 46.1%
Average Spleen Weight ([4]; 150 micrograms): 0.6012
Actual Spleen Weight ([4]; 150 micrograms): 0.6214 and 0.6663 and 0.5159
antiviral activity in splenomegaly assay ([4]; Example 8): most active compounds of the group in the splenomegaly assay
EC50 [2]: 6.9 µM
EC50 [3]: > 242 µM
loss of antiviral activity relative to parent [5]: loss of activity

CC(=O)Oc1cc(O)c2c(=O)c3c(O)cc(C)c4c5c(C)cc(O)c6c(=O)c7c(O)cc(OC(C)=O)c8c1c2c(c34)c(c65)c78 [WIS-6, hypericin diacetate]
Average CPM ([1]; 0.05 micrograms, Table VIII): 190,506 CPM
CPM ([1]; 0.05 micrograms, Table VIII): 195,374 CPM and 185,638 CPM
Average CPM ([1]; 0.1 micrograms, Table VIII): 389,388 CPM
CPM ([1]; 0.1 micrograms, Table VIII): 188,378 CPM and 590,398 CPM
Average CPM ([1]; 0.5 micrograms, Table VIII): 161,570 CPM
CPM ([1]; 0.5 micrograms, Table VIII): 116,590 CPM and 206,550 CPM
Average CPM ([1]; 1 microgram, Table VIII): 153,363 CPM
CPM ([1]; 1 microgram, Table VIII): 124,996 CPM and 181,730 CPM
Average CPM ([1]; 2 micrograms, Table VIII): 94,199 CPM
CPM ([1]; 2 micrograms, Table VIII): 96,562 CPM and 91,836 CPM
Average CPM ([1]; 5 micrograms, Table VIII): 90,273 CPM
CPM ([1]; 5 micrograms, Table VIII): 86,850 CPM and 93,696 CPM
Average CPM ([1]; 10 micrograms, Table VIII): 146,588 CPM
CPM ([1]; 10 micrograms, Table VIII): 178,026 CPM and 115,150 CPM
inhibition at 50 ng ([1]; 0.05 micrograms, Table VIII): 76.7%
inhibition at 0.0001 mg ([1]; 0.1 micrograms, Table VIII): 52.3%
inhibition at 0.0005 mg ([1]; 0.5 micrograms, Table VIII): 80.2%
inhibition at 0.001 mg ([1]; 1 microgram, Table VIII): 81.2%
inhibition at 0.002 mg ([1]; 2 micrograms, Table VIII): 88.5%
inhibition at 0.005 mg ([1]; 5 micrograms, Table VIII): 88.9%
inhibition at 0.01 mg ([1]; 10 micrograms, Table VIII): 82%
Average % Inhibition ([4]; 1 microgram): 18.4%
Average Spleen Weight ([4]; 1 microgram): 0.8210
Actual Spleen Weight ([4]; 1 microgram): 0.9291 and 0.8017 and 0.7323
Average % Inhibition ([4]; 10 micrograms): 9.2%
Average Spleen Weight ([4]; 10 micrograms): 0.8930
Actual Spleen Weight ([4]; 10 micrograms): 0.8387 and 0.8529 and 0.9874
Average % Inhibition ([4]; 50 micrograms): 3.2%
Average Spleen Weight ([4]; 50 micrograms): 0.9407
Actual Spleen Weight ([4]; 50 micrograms): 0.9012 and 0.9969 and 0.9241
Average % Inhibition ([4]; 150 micrograms): 18.6%
Average Spleen Weight ([4]; 150 micrograms): 0.8187
Actual Spleen Weight ([4]; 150 micrograms): 0.7921 and 0.8013 and 0.8626
EC50 [2]: 0.85 µM
EC50 [3]: > 255 µM
